Laboratory results published in PubChem BioAssay AID248 (DTP/NCI, 2004).
Where “and” joins values, the source holds several entries; their conditions need not be identical. Equal entries are not always repeated. Inconclusive results and toxic doses are left out. Rule as the data show it: active = T/C of 150% or more; inactive = T/C below 125%.

System: L1210 leukemia ip in BDF1 mice, survival T/C
Assay: NCI In Vivo Anticancer Drug Screen. Data for tumor model L1210 Leukemia (intraperitoneal) in B6D2F1 (BDF1) mice
Conditions: endpoint: mean survival time, higher = longer survival
Summary of the method: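 Each compound was tested against a transplantable tumor grown in mice. The endpoint was survival, with treated animals benchmarked against vehicle controls as a simple ratio.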

[1] = dose: 100.0 mg/kg/injection, schedule: Q04DX002 (ip), vehicle: Klucel (hydroxypropylcellulose) (HPC)
[2] = dose: 100.0 mg/kg/injection, schedule: Q04DX003 (ip), vehicle: Klucel (hydroxypropylcellulose) (HPC)
[3] = dose: 200.0 mg/kg/injection, schedule: Q04DX002 (ip), vehicle: Klucel (hydroxypropylcellulose) (HPC)
[4] = dose: 200.0 mg/kg/injection, schedule: Q04DX003 (ip), vehicle: Klucel (hydroxypropylcellulose) (HPC)
[5] = dose: 400.0 mg/kg/injection, schedule: Q04DX002 (ip), vehicle: Klucel (hydroxypropylcellulose) (HPC)
[6] = dose: 400.0 mg/kg/injection, schedule: Q04DX003 (ip), vehicle: Klucel (hydroxypropylcellulose) (HPC)
[7] = dose: 100.0 mg/kg/injection, schedule: Q01DX001 (ip), vehicle: saline
[8] = dose: 200.0 mg/kg/injection, schedule: Q01DX001 (ip), vehicle: saline
[9] = dose: 400.0 mg/kg/injection, schedule: Q01DX001 (ip), vehicle: saline

Measured: T/C

CN(CCO)N=Nc1ccccc1C#N
inactive: dose: 12.5 mg/kg/injection, schedule: Q01DX009 (ip), vehicle: other 103 % of control | dose: 25.0 mg/kg/injection, schedule: Q01DX009 (ip), vehicle: other 91 % of control | dose: 25.0 mg/kg/injection, schedule: Q04DX003 (ip), vehicle: other 95 % of control | dose: 50.0 mg/kg/injection, schedule: Q04DX003 (ip), vehicle: other 93 % of control | dose: 100.0 mg/kg/injection, schedule: Q04DX003 (ip), vehicle: other 95 % of control | dose: 200.0 mg/kg/injection, schedule: Q04DX003 (ip), vehicle: other 98 % of control | dose: 400.0 mg/kg/injection, schedule: Q04DX003 (ip), vehicle: other 98 % of control

Cc1c(C)c(O)c(SC(CC(=O)O)C(=O)O)c(C)c1O (stereo not given)
inactive: [1] 100 % of control | [2] 103 % of control | [3] 103 % of control | [4] 103 % of control | [5] 97 % of control | [6] 90 % of control

CCC[CH2][Sn]1([CH2]CCC)[O]C(=O)C2C(C(=O)[O]1)C1(Cl)C(Cl)=C(Cl)C2(Cl)C1(Cl)Cl (stereo not given)
inactive: dose: 44.0 mg/kg/injection, schedule: Q01DX001 (ip), vehicle: saline 98 % of control | dose: 45.0 mg/kg/injection, schedule: Q01DX001 (ip), vehicle: saline 97 % of control | dose: 67.0 mg/kg/injection, schedule: Q01DX001 (ip), vehicle: saline 95 % of control and 101 % of control | [7] 98 % of control and 103 % of control | dose: 150.0 mg/kg/injection, schedule: Q01DX001 (ip), vehicle: saline 123 % of control

O=S(=O)(Cc1ccccc1)Cc1ccccc1
inactive: dose: 50.0 mg/kg/injection, schedule: Q01DX001 (ip), vehicle: saline 101 % of control | [7] 95 % of control | dose: 100.0 mg/kg/injection, schedule: Q04DX003 (ip), vehicle: saline with Tween-80 96 % of control | [8] 95 % of control | dose: 200.0 mg/kg/injection, schedule: Q04DX003 (ip), vehicle: saline with Tween-80 100 % of control | [9] 91 % of control | dose: 400.0 mg/kg/injection, schedule: Q04DX003 (ip), vehicle: saline with Tween-80 100 % of control

C[As](C)N
inactive: dose: 10.0 mg/kg/injection, schedule: Q01DX001 (ip), vehicle: saline 102 % of control | dose: 15.0 mg/kg/injection, schedule: Q01DX001 (ip), vehicle: saline 93 % of control | dose: 20.0 mg/kg/injection, schedule: Q01DX001 (ip), vehicle: saline 120 % of control | dose: 30.0 mg/kg/injection, schedule: Q01DX001 (ip), vehicle: saline 91 % of control | dose: 60.0 mg/kg/injection, schedule: Q01DX001 (ip), vehicle: saline 90 % of control

CC(=O)OC1CCC2(C)C(=CC=C3C2CCC2(C)C3CCC2C(C)/C=C/C(C)C(C)C)C1 (stereo not given)
inactive: dose: 100.0 mg/kg/injection, schedule: Q04DX002 (sc), vehicle: saline with Tween-80 97 % of control | [2] 93 % of control | dose: 200.0 mg/kg/injection, schedule: Q04DX002 (sc), vehicle: saline with Tween-80 97 % of control | [4] 96 % of control | dose: 400.0 mg/kg/injection, schedule: Q04DX002 (sc), vehicle: saline with Tween-80 97 % of control | [6] 93 % of control

Cc1ccc(N=[N+]([O-])c2ccc(C)c(Br)c2)cc1Br
inactive: [1] 102 % of control | [3] 98 % of control | [5] 98 % of control

O=C1CSC(=S)N1c1ccc2c(c1)OCO2
inactive: dose: 100.0 mg/kg/injection, schedule: Q04DX003 (ip), vehicle: saline 94 % of control | dose: 200.0 mg/kg/injection, schedule: Q04DX003 (ip), vehicle: saline 90 % of control | dose: 400.0 mg/kg/injection, schedule: Q04DX003 (ip), vehicle: saline 95 % of control

CC(=O)OC1CCC2(C)C(CCC3C4CC(N5CC5)C(C(C)=O)C4(C)CC(=O)C32)C1 (stereo not given)
inactive: dose: 100.0 mg/kg/injection, schedule: Q01DX001 (sc), vehicle: steriod suspending solution 99 % of control | dose: 200.0 mg/kg/injection, schedule: Q01DX001 (sc), vehicle: steriod suspending solution 100 % of control | dose: 400.0 mg/kg/injection, schedule: Q01DX001 (sc), vehicle: steriod suspending solution 94 % of control

CCOC(=O)c1ccc(NCCC(=O)CBr)cc1
inactive: dose: 5.0 mg/kg/injection, schedule: Q01DX001 (ip), vehicle: carboxymethylcellulose (CMC) 97 % of control | dose: 10.0 mg/kg/injection, schedule: Q01DX001 (ip), vehicle: carboxymethylcellulose (CMC) 97 % of control | dose: 20.0 mg/kg/injection, schedule: Q01DX001 (ip), vehicle: carboxymethylcellulose (CMC) 92 % of control | dose: 40.0 mg/kg/injection, schedule: Q01DX001 (ip), vehicle: carboxymethylcellulose (CMC) 100 % of control

C#CCNc1c(C)cccc1C
inactive: dose: 100.0 mg/kg/injection, schedule: Q01DX009 (ip), vehicle: Klucel (hydroxypropylcellulose) (HPC) 107 % of control | [2] 98 % of control | dose: 200.0 mg/kg/injection, schedule: Q01DX009 (ip), vehicle: Klucel (hydroxypropylcellulose) (HPC) 102 % of control | [4] 97 % of control

N#CCCc1c(O)ccc2ccccc12
inactive: dose: 100.0 mg/kg/injection, schedule: Q01DX009 (ip), vehicle: saline with Tween-80 105 % of control | dose: 200.0 mg/kg/injection, schedule: Q01DX009 (ip), vehicle: saline with Tween-80 102 % of control | dose: 400.0 mg/kg/injection, schedule: Q01DX009 (ip), vehicle: saline with Tween-80 105 % of control

O=c1[nH]nc(Sc2ccccc2)c(=O)[nH]1
inactive: [7] 97 % of control | [8] 97 % of control | [9] 97 % of control

CCCCCCCCCCCCCCCCCOc1ccc(I)cc1
inactive: [2] 91 % of control | [4] 91 % of control

CCCCCCCCCCCCSC1=NS(=O)(=O)c2ccccc21
inactive: [2] 106 % of control | [4] 94 % of control | [6] 90 % of control

[N-]=[N+]=C1c2ccccc2-c2ccccc21
inactive: dose: 100.0 mg/kg/injection, schedule: Q01DX001 (ip), vehicle: Klucel (hydroxypropylcellulose) (HPC) 94 % of control | [2] 104 % of control | dose: 200.0 mg/kg/injection, schedule: Q01DX001 (ip), vehicle: Klucel (hydroxypropylcellulose) (HPC) 93 % of control | [4] 90 % of control | dose: 400.0 mg/kg/injection, schedule: Q01DX001 (ip), vehicle: Klucel (hydroxypropylcellulose) (HPC) 91 % of control | [6] 101 % of control

Cn1c(=O)cc(CC(=O)C(=O)O)c2ccccc21
inactive: [7] 88 % of control | [8] 93 % of control | [9] 93 % of control

O=C(Cc1ccccn1)NCC(O)c1ccccc1 (stereo not given)
inactive: [7] 110 % of control | [8] 91 % of control | [9] 93 % of control

N=C(N)/[N+]([O-])=N/O
inactive: dose: 8.0 mg/kg/injection, schedule: Q01DX001 (ip), vehicle: saline + alcohol 97 % of control | dose: 12.0 mg/kg/injection, schedule: Q01DX001 (ip), vehicle: saline + alcohol 100 % of control | dose: 18.0 mg/kg/injection, schedule: Q01DX001 (ip), vehicle: saline + alcohol 111 % of control | dose: 26.0 mg/kg/injection, schedule: Q01DX001 (ip), vehicle: saline + alcohol 98 % of control | dose: 40.0 mg/kg/injection, schedule: Q01DX001 (ip), vehicle: saline + alcohol 103 % of control | dose: 60.0 mg/kg/injection, schedule: Q01DX001 (ip), vehicle: saline + alcohol 95 % of control | dose: 90.0 mg/kg/injection, schedule: Q01DX001 (ip), vehicle: saline + alcohol 101 % of control | dose: 135.0 mg/kg/injection, schedule: Q01DX001 (ip), vehicle: saline + alcohol 100 % of control | dose: 200.0 mg/kg/injection, schedule: Q01DX001 (ip), vehicle: saline + alcohol 108 % of control
